Measurements published in paper PMC6143625, “A high throughput screen for next-generation leads targeting malaria parasite transmission” (Nature Communications, 2018).
Where two headings read alike, the source gives them in different places.

Tests used:
[1] = system: P. falciparum 3D7 asexual blood stages; test: Whole-cell time extended asexual growth assay (pLDH); type: cell-based; conditions: Plasmodium falciparum, 72 h; for IC50: dose response retest, read-out: IC50 (µM) Asex stages; for inhibition at 2 µM: primary screen, read-out: %Inh Asex stages @2uM
Procedure: Asexual activity was assayed via Plasmodium lactate dehydrogenase activity (pLDH), a surrogate of asexual parasite growth. […] 2 µM artesunate and DMSO were used as the positive and negative controls, respectively. […] After plate mixing, NBT reduction was measured by absorbance at 650 nm using Envision (Perkin Elmer).

HepG2 human cells = system: HepG2 human cells; parameters: method as in http://dx.doi.org/10.6019/CHEMBL3507680; conditions: ref http://dx.doi.org/10.6019/CHEMBL3507680; cited from earlier work
[2] = system: P. falciparum stage V male gametocytes (male gamete formation); test: P. falciparum dual gamete formation assay (Pf DGFA), male readout (exflagellation), 48 h carry-over format; type: cell-based, Plasmodium falciparum NF54; conditions: for IC50 / inhibition at 2 µM: Plasmodium falciparum; for IC50: read-out: Male IC50; for inhibition at 2 µM / %Inhibition Male @2uM: primary screen, single replicate
[3] = system: P. falciparum stage V female gametocytes (female gamete formation); test: P. falciparum dual gamete formation assay (Pf DGFA), female readout (Pfs25 expression), 48 h carry-over format; type: cell-based, Plasmodium falciparum NF54; conditions: for IC50 / inhibition at 2 µM: Plasmodium falciparum; for IC50: read-out: Female IC50; for inhibition at 2 µM / %Inhibition Female @2uM: primary screen, single replicate
[4] = 48 h, dose response retest of primary hits, 48 h incubation

SMILES: COc1cc(CNCC(O)c2ccc(F)c(F)c2)cc2c1OCO2 (stereo not drawn) [DDD00408586]
- IC50 [1]: 3 µM
- inhibition at 2 µM [1]: 56.7%
- %Inh HepG2 @10uM (HepG2 human cells): 29.87%

SMILES: CCCc1nc2c(c(C)c(C)n2CCN(C)C)c(N)c1CC [DDD01026700]
- IC50 [1]: 5.25 µM
- inhibition at 2 µM [1]: 39.3%
- %Inh HepG2 @10uM (HepG2 human cells): 3.64%

SMILES: CCc1c(-c2ccccc2)nc2c(c(C)c(C)n2CCN(C)C)c1N [DDD01026714]
- IC50 [1]: 3.31 µM
- inhibition at 2 µM [1]: 48.1%
- %Inh HepG2 @10uM (HepG2 human cells): 15.22%

SMILES: Cc1c(-c2ccccc2)nc2c(c(C)c(C)n2CCN(C)C)c1N [DDD01026725]
- IC50 [1]: 4.49 µM
- inhibition at 2 µM [1]: 46.1%
- %Inh HepG2 @10uM (HepG2 human cells): 13.65%

SMILES: CC(C)n1ncc2c1NC(=O)CC21C(=O)Nc2c(Cl)ccc(Cl)c21 (stereo not drawn) [DDD01027128]
- IC50 [1]: 2.18 µM
- inhibition at 2 µM [1]: 96.3%
- %Inh HepG2 @10uM (HepG2 human cells): -12.20%

SMILES: O=C(CN1CC(c2nc(C3CC3)no2)C1)N1CCOCC1.O=C(O)C(=O)O [DDD01027902]
- IC50 [2, 4]: 1.18 µM
- inhibition at 2 µM ([2]; 48 h incubation): 52.5%
- IC50 [3, 4]: 5.81 µM
- inhibition at 2 µM ([3]; 48 h incubation): < 30%
- %Inh HepG2 @10uM (HepG2 human cells): -17.5%

SMILES: CC(C)Nc1nc2c(c(NC3CC3)n1)CCN(C1CCOCC1)CC2 [DDD01029612]
- IC50 [1]: 3.54 µM
- inhibition at 2 µM [1]: 33.7%
- %Inh HepG2 @10uM (HepG2 human cells): -3.76%

SMILES: CC(C)Nc1nc2c(c(NC3CC3)n1)CN(C(=O)Cc1ccsc1)CC2 [DDD01029980]
- IC50 [1]: 2.5 µM
- inhibition at 2 µM [1]: 33.2%
- %Inh HepG2 @10uM (HepG2 human cells): 3.26%

SMILES: CC(C)Nc1nc2c(c(NC3CC3)n1)CN(C(=O)c1ccsc1)CC2 [DDD01030030]
- IC50 [1]: 1.15 µM
- inhibition at 2 µM [1]: 58.7%
- %Inh HepG2 @10uM (HepG2 human cells): -17.20%

SMILES: COc1ccc(CN2CCc3c(CNC(=O)CC#N)nn(C)c3C2)cc1.O=C(O)C(F)(F)F.O=C(O)C(F)(F)F [DDD01030619]
- IC50 [2, 4]: 1.34 µM
- inhibition at 2 µM ([2]; 48 h incubation): 59.5%
- IC50 [3, 4]: > 10 µM
- inhibition at 2 µM ([3]; 48 h incubation): < 30%
- %Inh HepG2 @10uM (HepG2 human cells): -1.4%

SMILES: c1cncc(-c2ccc3c(c2)CCC32CCNCC2)c1 [DDD01031368]
- IC50 [1]: 3.86 µM
- inhibition at 2 µM [1]: 38.8%
- %Inh HepG2 @10uM (HepG2 human cells): 17.78%

SMILES: Cc1nnc(N2CC[C@@H](OCC3CC3)[C@@H](Cc3ccccc3)C2)s1.O=C(O)C(F)(F)F [DDD01032950]
- IC50 [1]: 2.17 µM
- inhibition at 2 µM [1]: 45.4%
- %Inh HepG2 @10uM (HepG2 human cells): -7.86%

SMILES: CN(Cc1ccco1)C[C@H]1OC[C@@H]2CCN(Cc3ccccn3)C[C@@H]21.O=C(O)C(F)(F)F.O=C(O)C(F)(F)F.O=C(O)C(F)(F)F [DDD01033585]
- IC50 [1]: 2.59 µM
- inhibition at 2 µM [1]: 41%
- %Inh HepG2 @10uM (HepG2 human cells): -8.48%

SMILES: COc1ccc(N2CCCC3(C2)CN(c2nncs2)CCO3)cc1 (stereo not drawn) [DDD01034473]
- IC50 [1]: 1.48 µM
- inhibition at 2 µM [1]: 87.8%
- %Inh HepG2 @10uM (HepG2 human cells): 1.09%

SMILES: COc1cccc(C2SCC(=O)Nc3ccsc32)c1OC (stereo not drawn) [DDD01034924]
- IC50 [1]: 5.19 µM
- inhibition at 2 µM [1]: 33.1%
- %Inh HepG2 @10uM (HepG2 human cells): 1.70%

SMILES: Cc1[nH]/c(=N\C(=O)c2csc(NC3CCCC3)n2)sc1C [DDD01035522]
- IC50 [1]: 5.98 µM
- inhibition at 2 µM [1]: 32.6%
- %Inh HepG2 @10uM (HepG2 human cells): 31.16%

SMILES: I.c1ccc(Sc2ccc3c(c2)OCO3)c(CNC2=NCCN2)c1 [DDD01035544]
- IC50 [1]: 3.12 µM
- inhibition at 2 µM [1]: 30.4%
- %Inh HepG2 @10uM (HepG2 human cells): -0.79%

SMILES: CC(C)c1nnc2ccc(N3CCC(C(=O)Nc4nccs4)CC3)nn12 [DDD01036018]
- IC50 [1]: 9.35 µM
- inhibition at 2 µM [1]: 30.4%
- %Inh HepG2 @10uM (HepG2 human cells): 10.73%

SMILES: O=C(Nc1cnn(COc2ccc(F)cc2Cl)c1)C1CC1 [DDD01037427]
- IC50 [1]: 3.65 µM
- inhibition at 2 µM [1]: 46.4%
- %Inh HepG2 @10uM (HepG2 human cells): 9.89%

SMILES: CCN(CC)c1nc(Nc2cccc(C(C)O)c2)nc2ccccc12 (stereo not drawn) [DDD01037966]
- IC50 [1]: 1.88 µM
- inhibition at 2 µM [1]: 44.9%
- %Inh HepG2 @10uM (HepG2 human cells): 65.01%

SMILES: CC(O)c1cccc(Nc2nc(NCCO)c3ccccc3n2)c1 (stereo not drawn) [DDD01037968]
- IC50 [1]: 1.67 µM
- inhibition at 2 µM [1]: 41.9%
- %Inh HepG2 @10uM (HepG2 human cells): -5.65%

SMILES: Oc1ccc(Cl)cc1CNCc1ccccc1Cl [DDD01038243]
- IC50 [1]: 2.29 µM
- inhibition at 2 µM [1]: 49.1%
- %Inh HepG2 @10uM (HepG2 human cells): -8.63%

SMILES: Oc1ccc(Cl)cc1CNCc1cccc(C(F)(F)F)c1 [DDD01038245]
- IC50 [1]: 1.69 µM
- inhibition at 2 µM [1]: 52.7%
- %Inh HepG2 @10uM (HepG2 human cells): -12.90%

SMILES: Cc1ccccc1CNCc1cc(Cl)ccc1O [DDD01038246]
- IC50 [1]: 1.52 µM
- inhibition at 2 µM [1]: 53.9%
- %Inh HepG2 @10uM (HepG2 human cells): -11.50%

SMILES: COc1cccc(CNCc2cccc(Cl)c2)c1O [DDD01038248]
- IC50 [1]: 3.16 µM
- inhibition at 2 µM [1]: 33.1%
- %Inh HepG2 @10uM (HepG2 human cells): -4.96%

SMILES: COc1cccc(CNCc2ccc(F)c(Cl)c2)c1O [DDD01038250]
- IC50 [1]: 1.59 µM
- inhibition at 2 µM [1]: 68.7%
- %Inh HepG2 @10uM (HepG2 human cells): 27.04%

SMILES: COCCCNC(=O)c1cc(C(C)C)nc(N2CCCCCC2)n1 [DDD01038653]
- IC50 [1]: 6.14 µM
- inhibition at 2 µM [1]: 40.6%
- %Inh HepG2 @10uM (HepG2 human cells): -8.22%

SMILES: Cc1nn(C)c(C)c1CCn1cncc1-c1ccc2c(c1)CC(C)N2C.Cl (stereo not drawn) [DDD01056530]
- IC50 [1]: 3.8 µM
- inhibition at 2 µM [1]: 51%
- %Inh HepG2 @10uM (HepG2 human cells): 4.43%

SMILES: Cc1cccc(C)c1Nc1noc2c1CN(C(=O)c1ccnn1C)CC2 [DDD01056796]
- IC50 [1]: 1.46 µM
- inhibition at 2 µM [1]: 68.6%
- %Inh HepG2 @10uM (HepG2 human cells): 69.80%

SMILES: Cc1cccc(C)c1Nc1noc2c1CN(C(=O)c1cn(C)cn1)CC2 [DDD01056797]
- IC50 [1]: 1.55 µM
- inhibition at 2 µM [1]: 81.2%
- %Inh HepG2 @10uM (HepG2 human cells): 75.15%

SMILES: COc1ccc(CNC(Cc2ccsc2)c2ccc(C)cn2)c(OC)c1 (stereo not drawn) [DDD01058868]
- IC50 [2, 4]: > 10 µM
- inhibition at 2 µM ([2]; 48 h incubation): < 30%
- IC50 [3, 4]: 5.3 µM
- inhibition at 2 µM ([3]; 48 h incubation): 30.8%
- %Inh HepG2 @10uM (HepG2 human cells): 85.33%

SMILES: Cc1cccnc1CN1CC[C@H](Oc2cccc(F)c2)[C@@](C)(O)C1 [DDD01060871]
- IC50 [2, 4]: > 10 µM
- inhibition at 2 µM ([2]; 48 h incubation): < 30%
- IC50 [3, 4]: 6.07 µM
- inhibition at 2 µM ([3]; 48 h incubation): 32.8%
- %Inh HepG2 @10uM (HepG2 human cells): -0.828%

SMILES: CC(NCC1CCN(CCO)CC1)c1ccc(C(F)(F)F)cc1 (stereo not drawn) [DDD01073719]
- IC50 [2, 4]: 7.83 µM
- inhibition at 2 µM ([2]; 48 h incubation): 34.8%
- IC50 [3, 4]: > 10 µM
- inhibition at 2 µM ([3]; 48 h incubation): < 30%
- %Inh HepG2 @10uM (HepG2 human cells): 14.02%

SMILES: O=C(C1CC2(CCNCC2)CN1)N1CCN(c2cccc(Cl)c2Cl)CC1 (stereo not drawn) [DDD01243908]
- IC50 [2, 4]: 4.28 µM
- inhibition at 2 µM ([2]; 48 h incubation): 65.7%
- IC50 [3, 4]: 4.79 µM
- inhibition at 2 µM ([3]; 48 h incubation): < 30%
- %Inh HepG2 @10uM (HepG2 human cells): -1.58%

SMILES: COc1ccc(-c2nc(CNCCn3cccn3)cs2)cc1 [DDD01301541]
- %Inhibition Male @2uM ([2]; 48 h incubation): <30%
- %Inhibition Female @2uM ([3]; 48 h incubation): 31.18%

SMILES: CC(CC(=O)NS(=O)(=O)c1ccc2c(c1)OCCO2)c1ccc(F)cc1 (stereo not drawn) [DDD01301601]
- %Inhibition Male @2uM ([2]; 48 h incubation): <30%
- %Inhibition Female @2uM ([3]; 48 h incubation): 38.27%

SMILES: c1cnc(-c2nc(CN3CCn4c(nnc4C4CC4)C3)cs2)nc1 [DDD01301615]
- %Inhibition Male @2uM ([2]; 48 h incubation): <30%
- %Inhibition Female @2uM ([3]; 48 h incubation): 32.48%

SMILES: Cc1nc(C)n(CC2CCCN(CCOc3cccc(C#N)c3)C2)n1 (stereo not drawn) [DDD01302568]
- %Inhibition Male @2uM ([2]; 48 h incubation): 85.34%
- %Inhibition Female @2uM ([3]; 48 h incubation): <30%

SMILES: CCC(NC(=O)c1ccco1)c1ccccc1OCC(=O)N1CCCC1 (stereo not drawn) [DDD01302666]
- %Inhibition Male @2uM ([2]; 48 h incubation): 33.09%
- %Inhibition Female @2uM ([3]; 48 h incubation): <30%

SMILES: CC(C)CCN(C)C(=O)c1nc(S(C)(=O)=O)n2ccccc12 [DDD01302801]
- %Inhibition Male @2uM ([2]; 48 h incubation): 31.11%
- %Inhibition Female @2uM ([3]; 48 h incubation): <30%

SMILES: COc1ccc(NC(=O)c2ccc(-n3ncc(C#N)c3N)cc2)cn1 [DDD01303472]
- %Inh HepG2 @10uM (HepG2 human cells): 3.50%

SMILES: O=C(NCC1(O)CCOc2ccccc21)c1ccc(Br)s1 (stereo not drawn) [OJF-034]
- IC50 ([2]; SAR, Fig. 6 and Fig. 7): > 25 µM
- IC50 ([3]; SAR, Fig. 7): > 25 µM
